{"source": "patent US10471025B2", "about": "“Compositions for use in treating parkinson's disease and related disorders” (Technophage, Investigação E Desenvolvimento Em …, priority 2015, dated 2019)", "key": {"[1]": {"test_system": "6-OHDA treated zebrafish larvae", "test": "Freezing (duration of freezing periods, light/dark stimulus) in 6-OHDA zebrafish larvae", "format": "in vivo", "conditions": "tapentadol 48.5, stavudine 50, nabumetone 0.91 μM; L-Dopa treatment", "protocol": "In the zebrafish model, the locomotor impairment was measured and related with bradykinesia in patients. Tests included evaluating ‘freezing_ in response to a light/dark stimulus. 6-OHDA induced larvae had fewer freezing episodes but spent longer periods in the frozen state. In previous studies, the duration of freezing episodes has been analyzed in PD patients. […] Nonetheless, it is an inhibitor of the neuronal dopamine transporter and since 6-OHDA needs DAT to enter the neuron and induce the disease, methylphenidate may be a false positive.\nAs FIGS. 9B-9C show, freezing recovery was tested using 7 candidate molecules at optimal concentrations, in an exemplary experiment with n=8 fish, and methylphenidate and amantadine at 25 ? M."}, "[2]": {"test_system": "6-OHDA treated zebrafish larvae", "test": "Co-administration with L-Dopa, total distance 6-OHDA larvae move", "format": "in vivo", "conditions": "hydrochloride; for Effect of co-administration with L-Dopa on locomotor recovery: total distance, L-Dopa 250 or 125 μM"}, "6-OHDA mouse model [3]": {"test_system": "6-OHDA mouse model", "test": "Rotarod test, unilateral striatal 6-OHDA mice (Example 5)", "format": "in vivo"}, "6-OHDA mouse model [4]": {"test_system": "6-OHDA mouse model", "test": "Cylinder test, 6-OHDA mice (Example 5)", "format": "in vivo"}, "6-OHDA mouse model [5]": {"test_system": "6-OHDA mouse model", "test": "Abnormal involuntary movements, 6-OHDA mice (Example 5)", "format": "in vivo", "conditions": "28 days post injection; 30 and 90 minutes after treatment", "protocol": "This condition results in a range of involuntary movements that can be evaluated by video tracking analyses. […] Evaluations were performed during two independent trials, 30 and 90 minutes after treatment administration. […] Nonetheless, forelimb and orofacial involuntary movements are extremely hard to detect, and reading errors occur, considering the size of the animals. Total abnormal involuntary movements are the sum of all 4 different involuntary movements evaluated and is the parameter often reported in the literature.\nAs FIGS. 17A-17F show, abnormal involuntary movements were evaluated using the cylinder test 28 days post injection. […] Values mean ě SEM (n=5-8)."}, "healthy wild type mice": {"test_system": "healthy wild type mice", "test": "Toxicity assay, open field test in healthy wild type mice (Example 6)", "format": "in vivo, mouse", "conditions": "1 h after i.p.; tapentadol C1 8.3 mg/kg in combination with L-Dopa 18 mg/kg", "description": "Necropsy was done after cervical dislocation. […] Saline was given to the control group."}, "6-OHDA mouse model [6]": {"test_system": "6-OHDA mouse model", "test": "Abnormal involuntary movements (AIMs), 6-OHDA mice, ON/OFF L-Dopa study (Example 7)", "protocol": "The unilateral striatal 6-OHDA mice model was used in this study. Specifically, 12 week old CD-1 male mice received an injection of 6-OHDA neurotoxin at the following coordinates: AP +0.9 mm, ML +2.0 mm, DV −3.2 mm, as in the Example outlined above. Animals were injected with 10 ? g of 6-OHDA or ascorbic acid (vehicle control) to induce the disease. Disease was induced for 7 days and treatment then was initiated at this time point.\nThe following parameters were evaluated: hyperkinetic and/or dystonic movements of the contralateral forelimb on the sagittal or frontal plane (forelimb involuntary movements; FIG. 29A), twisted posture of the neck and upper body towards the side contralateral to the lesion (upper body involuntary movements; FIG. 29B), twitching of orofacial muscles, empty jaw movements and contralateral tongue protrusion (orofacial involuntary movements; FIG. 29C), circular locomotion with contralateral side bias (circular involuntary movements; FIG. 29D), total involuntary movements (FIG. 29E), and total involuntary movement along the different timepoints (FIG. 29F). […] Total abnormal involuntary movements (FIGS. […]) were the sum of all 4 different involuntary movements evaluated.\nThe same parameters were analyzed as for 20 days post injection (dpi)."}, "6-OHDA mouse model [7]": {"test_system": "6-OHDA mouse model", "format": "in vivo", "conditions": "for Gait test: maximum velocity, mean velocity, percentage of time resting or moving fast: tapentadol hydrochloride 8 or 15 mg/kg/day, hydrochloride", "protocol": "That is, tapentadol hydrochloride C1 concentration dosage was increased to 8 mg/kg/day and tapentadol hydrochloride C3 concentration dosage was increased to 15 mg/kg/day. The gait test plan is illustrated in FIGS. 24A-24B.\nTo better observe the movement pattern of mice ̆s limbs, a new device was engineered similar to that used in a beam test, but with a closed corridor and a door. The apparatus was transparent with two home-cages at the extremities, one at the entrance that is transparent and another on the opposite end that is black. Each test was repeated 5 times and the 3 more consistent trials were selected for paw placement analysis. Data was recorded by 3 different cameras: on the bottom, top, and side of the corridor. Each camera allowed measurement of a different gait parameter. Specifically, the bottom camera allowed measurement, through the base of the support, of the hind paw distance and hind paw angle. The top camera allowed measurement of different parameters at distinct zones^—in the green area (most of the length of the apparatus), maximum and mean velocity, percentage of time resting/moving slow/moving fast, and time to the door were measured; the dark blue area provided a lag zone; and in the yellow area (area in front of the door), the permanence time before the door, mean velocity before the door, and latency to cross the door were measured. The side camera was used to analyze mice posture."}, "rat": {"test_system": "rat", "conditions": "cited from earlier work"}, "mouse": {"test_system": "mouse", "conditions": "cited from earlier work"}, "[8]": {"conditions": "chronic dosing; cited from earlier work"}, "[9]": {"conditions": "cited from earlier work"}, "[10]": {"test_system": "cytochrome P450 (CY P) isoenzymes", "conditions": "cited from earlier work"}}, "note": "“Also recorded” adds a separate entry of the source. Counter-ions that a name gives are not always drawn. Like-named read-outs stand apart in the source and are kept apart here."}
{"smiles": "CC[C@@H](c1cccc(O)c1)[C@@H](C)CN(C)C", "note": "[tapentadol, tapentadol hydrochloride]", "values": [{"measurement": "Duration of freezing periods, recovery vs 6-OHDA treated larvae", "setting": "[1]", "value": "not recovered"}, {"measurement": "Tapentadol w L-Dopa: effectiveness with L-Dopa 250 relative to 125", "setting": "[2]; co-administration with L-Dopa 250 vs 125, listed as Tapentadol HCl", "value": "less and equally"}, {"measurement": "Effect of co-administration with L-Dopa on locomotor recovery", "setting": "[2]; listed as Tapentadol", "value": "not affected"}, {"measurement": "Effect of co-administration with L-Dopa on locomotor recovery", "setting": "[2]; listed as tapentadol hydrochloride", "value": "the same or improved"}, {"measurement": "Rotarod: latency to fall and speed, recovery", "setting": "6-OHDA mouse model [3]; C1 2.8 mg/kg/day i.p., 8 and 15 days post lesion", "value": "best recovery between groups, although not significant"}, {"measurement": "Rotarod: latency to fall and speed, recovery", "setting": "6-OHDA mouse model [3]; daily i.p., dosages tested (C1 and C2)", "value": "behavioral recovery over time"}, {"measurement": "Cylinder test: recovery over the parameters analyzed", "setting": "6-OHDA mouse model [4]; concentration 1 (2.8 mg/kg/day), hydrochloride, 2.8 mg/kg/day", "value": "showed a recovery; also recorded: strongest recovery"}, {"measurement": "Cylinder test: recovery over the parameters analyzed", "setting": "6-OHDA mouse model [4]; concentration 2 (0.9 mg/kg/day)", "value": "did not show significant recovery"}, {"measurement": "Induction of abnormal involuntary movements", "setting": "6-OHDA mouse model [5]", "value": "None of the treatments, tapentadol or stavudine of the combination, induced involuntary movements"}, {"measurement": "Open field behavior (velocity, distance, time resting/moving)", "setting": "healthy wild type mice", "value": "slightly different behavior in three out of the four parameters analyzed"}, {"measurement": "Induction of abnormal involuntary movements", "setting": "6-OHDA mouse model [6]; L-Dopa treated groups vs tapentadol hydrochloride alone", "value": "did not; also recorded: does not induce AIMs"}, {"measurement": "Effect on L-Dopa induced AIMs / dyskinesia", "setting": "6-OHDA mouse model [6]; concomitant administration with L-Dopa, hydrochloride", "value": "not reverted; also recorded: did not revert L-Dopa induced AIMs; also recorded: did not increase dyskinesia"}, {"measurement": "Gait test: all parameters measured", "setting": "6-OHDA mouse model [7]; 21 dpi, L-Dopa ON period", "value": "no significant improvement"}, {"measurement": "Gait test: permanence time before the door, latency to cross the door, mean velocity before the door", "setting": "6-OHDA mouse model [7]; 29 dpi, L-Dopa OFF period", "value": "behavioral recovery"}, {"measurement": "Gait test: maximum velocity, mean velocity, percentage of time resting or moving fast", "setting": "6-OHDA mouse model [7]; 29 dpi, L-Dopa OFF period, listed as Tapentadol hydrochloride", "value": "behavioral recovery"}, {"measurement": "Gait test: maximum velocity, mean velocity, percentage of time resting or moving fast", "setting": "6-OHDA mouse model [7]; 29 dpi, L-Dopa OFF period, listed as tapentadol hydrochloride", "value": "ameliorated"}, {"measurement": "LD50", "setting": "rat; intravenous administration, rats", "value": 45, "unit": "mg/kg"}, {"measurement": "LD50", "setting": "rat; oral administration, rat", "value": 980, "unit": "mg/kg"}, {"measurement": "LD50", "setting": "mouse; intravenous administration, mice", "value": 47, "unit": "mg/kg"}, {"measurement": "LD50", "setting": "mouse; oral administration, mouse", "value": 300, "unit": "mg/kg"}, {"measurement": "LD50", "setting": "mouse; oral, mice", "value": "300 to 350", "unit": "mg/kg"}, {"measurement": "Hepatic hypertrophy", "setting": "[8]", "value": "present in all animal species"}, {"measurement": "Absorption after oral administration", "setting": "[9]; dog, mice, and rats", "value": "completely absorbed"}, {"measurement": "Bioavailability", "setting": "[9]; dogs and rats", "value": "low"}, {"measurement": "Placenta-blood barrier crossing", "setting": "[9]; in vivo", "value": "crosses the placenta-blood barrier, but to a lesser extent"}, {"measurement": "Induction of CYP isoenzymes", "setting": "[10]", "value": "no significant induction"}]}
